Experimental data: patent US12624018B1, “Inhibitors of RIPK2 and medical uses thereof” (Odyssey Therapeutics, Inc., priority 2022, dated 2026)

Target: T1, RIPK2 enzyme (Homo sapiens, UniProt O43353)
T1 construct: purchased Carna 09-128
Assay: RIPK2 inhibition (ADP-Glo Kinase Assay)
Assay type: biochemical
Details: RIPK2 5 nM, ATP 150 μM, MBP substrate, read-out: RIPK2 IC50
Summary of the method: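 Human RIPK2 (5 nM) preincubated with compound 30 min at room temperature in 50 mM HEPES pH 7.5, 10 mM MgCl2, 2 mM DTT, 1 mM EGTA, 0.01% Brij-35, 0.05% BSA; native swine MBP as substrate. ADP formed quantified by ADP-Glo luminescence; percent inhibition relative to DMSO and no-enzyme controls.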

T1 sequence (O43353 1-299 limits assumed): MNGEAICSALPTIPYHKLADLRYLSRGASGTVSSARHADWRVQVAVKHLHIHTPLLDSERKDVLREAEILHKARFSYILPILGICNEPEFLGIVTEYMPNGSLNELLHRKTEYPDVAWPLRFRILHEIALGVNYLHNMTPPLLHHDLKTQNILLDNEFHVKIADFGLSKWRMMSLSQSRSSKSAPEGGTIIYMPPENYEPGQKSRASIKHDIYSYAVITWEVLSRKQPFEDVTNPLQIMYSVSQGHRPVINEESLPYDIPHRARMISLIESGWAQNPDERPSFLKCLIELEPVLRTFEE

| IC50 | Structure (SMILES) |
| --- | --- |
| 5.2 nM | CC(C)(C)n1cc(NC(=O)Cc2ccc(Oc3ccnc4ccc(-n5ccccc5=O)cc34)cc2F)cn1 [Compound 157, N-(1-(tert-butyl)-1H-pyrazol-4-yl)-2-(2-fluoro-4-((6-(2-oxopyridin-1(2H)-yl)quinolin-4-yl)oxy)phenyl) acetamide] |
| < 2.5 nM | CC(C)(C)n1cc(NC(=O)Cc2ccc(Oc3ncnc4ccc(OC5CCNCC5)cc34)c(Cl)c2)cn1 [Compound 158, N-(1-(tert-butyl)-1H-pyrazol-4-yl)-2-(3-chloro-4-((6-(piperidin-4-yloxy)quinazolin-4-yl)oxy)phenyl) acetamide] |
| < 2.5 nM | CN1CCC(Oc2ccc3ncnc(Oc4ccc(CC(=O)Nc5cnn(C(C)(C)C)c5)cc4Cl)c3c2)CC1 [Compound 159, N-(1-(tert-butyl)-1H-pyrazol-4-yl)-2-(3-chloro-4-((6-((1-methyl-piperidin-4-yl)oxy)quinazolin-4-yl)oxy)phenyl) acetamide] |
| < 2.5 nM | CCN1CCC(Oc2ccc3ncnc(Oc4ccc(CC(=O)Nc5cnn(C(C)(C)C)c5)cc4Cl)c3c2)CC1 [Compound 160, N-(1-(tert-butyl)-1H-pyrazol-4-yl)-2-(3-chloro-4-((6-((1-ethyl-piperidin-4-yl)oxy)quinazolin-4-yl)oxy)phenyl) acetamide] |
| < 2.5 nM | CC(C)(C)n1cc(NC(=O)Cc2ccc(Oc3ccnc4ccc(OC5CCNCC5)cc34)c(F)c2)cn1 [Compound 161, N-(1-(tert-butyl)-1H-pyrazol-4-yl)-2-(3-fluoro-4-((6-(piperidin-4-yloxy)quinolin-4-yl)oxy)phenyl) acetamide] |
| < 2.5 nM | CN1CCC(Oc2ccc3nccc(Oc4ccc(CC(=O)Nc5cnn(C(C)(C)C)c5)cc4F)c3c2)CC1 [Compound 162, N-(1-(tert-butyl)-1H-pyrazol-4-yl)-2-(3-fluoro-4-((6-((1-methyl-piperidin-4-yl)oxy)quinolin-4-yl)oxy)phenyl) acetamide] |
| < 2.5 nM | CC(C)(C)n1cc(NC(=O)Cc2ccc(Oc3ccnc4ccc(S(C)(=O)=O)cc34)c(F)c2)cn1 [Compound 163, N-(1-(tert-butyl)-1H-pyrazol-4-yl)-2-(3-fluoro-4-((6-(methylsulfonyl)quinolin-4-yl)oxy)phenyl)acetamide] |
| < 2.5 nM | CCS(=O)(=O)c1ccc2nccc(Oc3ccc(CC(=O)Nc4cnn(C(C)(C)C)c4)cc3F)c2c1 [Compound 164, N-(1-(tert-butyl)-1H-pyrazol-4-yl)-2-(4-((6-(ethylsulfonyl)quinolin-4-yl)oxy)-3-fluorophenyl)acetamide] |
| < 2.5 nM | CC(C)(C)n1cc(NC(=O)Cc2ccc(Oc3ccnc4ccc(OC5CCNCC5)cc34)c(F)c2F)cn1 [Compound 165, N-(1-(tert-butyl)-1H-pyrazol-4-yl)-2-(2,3-difluoro-4-((6-(piperidin-4-yloxy)quinolin-4-yl)oxy)phenyl) acetamide] |
| < 2.5 nM | CN1CCC(Oc2ccc3nccc(Oc4ccc(CC(=O)Nc5cnn(C(C)(C)C)c5)c(F)c4F)c3c2)CC1 [Compound 166, N-(1-(tert-butyl)-1H-pyrazol-4-yl)-2-(2,3-difluoro-4-((6-((1-methyl-piperidin-4-yl)oxy)quinolin-4-yl)oxy)phenyl) acetamide] |
| < 2.5 nM | CC(C)(C)n1cc(NC(=O)Cc2ccc(Oc3ccnc4ccc(S(C)(=O)=O)cc34)c(F)c2F)cn1 [Compound 167, N-(1-(tert-butyl)-1H-pyrazol-4-yl)-2-(2,3-difluoro-4-((6-(methylsulfonyl)quinolin-4-yl)oxy)phenyl)acetamide] |
| < 2.5 nM | CCS(=O)(=O)c1ccc2nccc(Oc3ccc(CC(=O)Nc4cnn(C(C)(C)C)c4)c(F)c3F)c2c1 [Compound 168, N-(1-(tert-butyl)-1H-pyrazol-4-yl)-2-(4-((6-(ethylsulfonyl)quinolin-4-yl)oxy)-2,3-difluorophenyl)acetamide] |
| < 2.5 nM | CC(C)(C)n1cc(NC(=O)Cc2ccc(Oc3ncnc4ccc(OC5CCNCC5)cc34)c(F)c2F)cn1 [Compound 169, N-(1-(tert-butyl)-1H-pyrazol-4-yl)-2-(2,3-difluoro-4-((6-(piperidin-4-yloxy)quinazolin-4-yl)oxy)phenyl) acetamide] |
| < 2.5 nM | CN1CCC(Oc2ccc3ncnc(Oc4ccc(CC(=O)Nc5cnn(C(C)(C)C)c5)c(F)c4F)c3c2)CC1 [Compound 170, N-(1-(tert-butyl)-1H-pyrazol-4-yl)-2-(2,3-difluoro-4-((6-((1-methyl-piperidin-4-yl)oxy)quinazolin-4-yl)oxy)phenyl) acetamide] |
| < 2.5 nM | CC(C)(C)n1cc(NC(=O)Cc2ccc(Oc3ccnc4ccc(OC5CCNCC5)cc34)c(Cl)c2)cn1 [Compound 171, N-(1-(tert-butyl)-1H-pyrazol-4-yl)-2-(3-chloro-4-((6-(piperidin-4-yloxy)quinolin-4-yl)oxy)phenyl) acetamide] |
| < 2.5 nM | CN1CCC(Oc2ccc3nccc(Oc4ccc(CC(=O)Nc5cnn(C(C)(C)C)c5)cc4Cl)c3c2)CC1 [Compound 172, N-(1-(tert-butyl)-1H-pyrazol-4-yl)-2-(3-chloro-4-((6-((1-methyl-piperidin-4-yl)oxy)quinolin-4-yl)oxy)phenyl) acetamide] |

| IC50 | Structure (SMILES) |
| --- | --- |
| < 2.5 nM | CCS(=O)(=O)c1ccc2nccc(Oc3ccc(CC(=O)Nc4cnn(C(C)(C)C)c4)c(F)c3C)c2c1 [Compound 173, N-(1-(tert-butyl)-1H-pyrazol-4-yl)-2-(4-((6-(ethylsulfonyl)quinolin-4-yl)oxy)-2-fluoro-3-methylphenyl)acetamide] |
| < 2.5 nM | Cc1c(Oc2ccnc3ccc(S(C)(=O)=O)cc23)ccc(CC(=O)Nc2cc(C(C)(C)C)n[nH]2)c1F [Compound 175, N-(5-(tert-butyl)-1H-pyrazol-3-yl)-2-(2-fluoro-3-methyl-4-((6-(methylsulfonyl)quinolin-4-yl)oxy)phenyl)acetamide] |
| 4 nM | Cc1cc(CC(=O)Nc2cnn(C(C)(C)C)c2)ccc1Oc1ncnc2ccc(OC3CCN(CCO)CC3)cc12 [Compound 176] |
| < 2.5 nM | COCCN1CCC(Oc2ccc3ncnc(Oc4ccc(CC(=O)Nc5cnn(C(C)(C)C)c5)cc4C)c3c2)CC1 [Compound 177, N-(1-(tert-butyl)-1H-pyrazol-4-yl)-2-(4-((6-((1-(2-methoxyethyl)piperidin-4-yl)oxy)quinazolin-4-yl)oxy)-3-methylphenyl) acetamide] |
| 5 nM | Cc1cc(CC(=O)Nc2cnn(C(C)(C)C)c2)ccc1Oc1ncnc2ccc(OC3CCN(CC(F)F)CC3)cc12 [Compound 178, N-(1-(tert-butyl)-1H-pyrazol-4-yl)-2-(4-((6-((1-(2,2-difluoroethyl)piperidin-4-yl)oxy)quinazolin-4-yl)oxy)-3-methylphenyl) acetamide] |
| < 2.5 nM | CCP(=O)(CC)c1ccc2nccc(Oc3ccc(CC(=O)Nc4cnn(C(C)(C)C)c4)cc3C)c2c1 [Compound 180, N-(1-(tert-butyl)-1H-pyrazol-4-yl)-2-(4-((6-(diethylphosphoryl)quinolin-4-yl)oxy)-3-methylphenyl) acetamide] |
| < 2.5 nM | Cc1cc(CC(=O)Nc2cnn(C(C)(C)C)c2)ccc1Oc1ccnc2ccc(P3(=O)CCCC3)cc12 [Compound 181, N-(1-(tert-butyl)-1H-pyrazol-4-yl)-2-(3-methyl-4-((6-(1-oxidophospholan-1-yl)quinolin-4-yl)oxy)phenyl) acetamide] |
| < 2.5 nM | Cc1cc(CC(=O)Nc2noc(C(C)(C)C)n2)ccc1Oc1ncnc2ccc(OC3CCNCC3)cc12 [Compound 183, N-(5-(tert-butyl)-1,2,4-oxadiazol-3-yl)-2-(3-methyl-4-((6-(piperidin-4-yloxy)quinazolin-4-yl)oxy)phenyl) acetamide] |
| 3 nM | Cc1cc(CC(=O)Nc2noc(C(C)(C)C)n2)ccc1Oc1ncnc2ccc(OC3CCN(C)CC3)cc12 [Compound 184, N-(5-(tert-butyl)-1,2,4-oxadiazol-3-yl)-2-(3-methyl-4-((6-((1-methylpiperidin-4-yl)oxy)quinazolin-4-yl)oxy)phenyl) acetamide] |
| < 2.5 nM | Cc1c(Oc2ncnc3ccc(OC4CCN(C)CC4)cc23)ccc(CC(=O)Nc2cc(C(C)(C)C)n[nH]2)c1F [Compound 186, N-(5-(tert-butyl)-1H-pyrazol-3-yl)-2-(2-fluoro-3-methyl-4-((6-((1-methyl-piperidin-4-yl)oxy)quinazolin-4-yl)oxy)phenyl) acetamide] |
| < 2.5 nM | Cc1cc(CC(=O)Nc2cnn(C(C)(C)C)c2)ccc1Oc1ccnc2ccc(OC[C@@H]3CCNC3)cc12 [Compound 192, (R)-N-(1-(tert-butyl)-1H-pyrazol-4-yl)-2-(3-methyl-4-((6-(pyrrolidin-3-ylmethoxy)quinolin-4-yl)oxy)phenyl) acetamide] |
| < 2.5 nM | Cc1cc(CC(=O)Nc2cnn(C(C)(C)C)c2)ccc1Oc1ccnc2ccc(OC[C@H]3CCNC3)cc12 [Compound 193, (S)-N-(1-(tert-butyl)-1H-pyrazol-4-yl)-2-(3-methyl-4-((6-(pyrrolidin-3-ylmethoxy)quinolin-4-yl)oxy)phenyl) acetamide] |
| < 2.5 nM | Cc1cc(CC(=O)Nc2cnn(C(C)(C)C)c2)ccc1Oc1ccnc2ccc(OC[C@@H]3CCCNC3)cc12 [Compound 194, (R)-N-(1-(tert-butyl)-1H-pyrazol-4-yl)-2-(3-methyl-4-((6-(piperidin-3-ylmethoxy)quinolin-4-yl)oxy)phenyl) acetamide] |
| < 2.5 nM | Cc1cc(CC(=O)Nc2cnn(C(C)(C)C)c2)ccc1Oc1ccnc2ccc(OC[C@H]3CCCNC3)cc12 [Compound 195, (S)-N-(1-(tert-butyl)-1H-pyrazol-4-yl)-2-(3-methyl-4-((6-(piperidin-3-ylmethoxy)quinolin-4-yl)oxy)phenyl) acetamide] |
| < 2.5 nM | [2H]C([2H])([2H])S(=O)(=O)c1ccc2nccc(Oc3ccc(CC(=O)Nc4cnn(C(C)(C)C)c4)cc3C)c2c1 [Compound 198, N-(1-(tert-butyl)-1H-pyrazol-4-yl)-2-(3-methyl-4-((6-((methyl-d3)sulfonyl)quinolin-4-yl)oxy)phenyl)acetamide] |
